Results on one substance are retold here after US6582713B2, “Compositions and methods for promoting wound healing” (Univ. of Colorado - Colorado Springs, priority 2000, dated 2003).

The subject of one data set is unsealed wound. Briefly: Effect of three day insulin treatment on unsealed wound in vivo. On the set-up: species or system mice. The settings on record: 100 micro liters applied to unsealed incision, photographs daily for one week. The text has this:
Six mice were anesthetized with avetin Q 15-18 micro liters per gram body weight. An area on the back of the neck was swabbed with alcohol and shaved. A single vertical incision was made with scissors. One hundred micro liters of insulin was applied to three mice and 100 micro liters of water was applied to the other three. Photographs of the wounds were taken on a daily basis for one week.

The nature of data set [1]: Blood glucose level after treatment injected into incision sealed with cyanoacrylate. The data set is classed as in vivo, mice. Conditions: for Blood Glucose Level: individual mice. How it is done: Twelve mice were used in the study. Each mouses' blood glucose level was tested at the start of the study. The mice were then weighted and anesthetized. The back of the neck was shaved and a single incision was made. The incision was then sealed with cyanoacrylate polymer which was applied and allowed to set for 1½ minutes. The treatment (glucose, water, insulin, or insulin plus glucose) as described above were injected into the incision. […] On day 1, blood glucose was again measured and the wound was photographed. This was repeated on days 3, 5, and 7. Mouse numbers 1, 2, and 3 received glucose treatment. Mouse numbers 4, 5, and 6 received water (control). Mouse numbers 7, 8, and 9 received insulin plus glucose. Mouse numbers 10, 11, and 12 received insulin.

“And” between values parts separate entries of the source, which are not always exact repeats. Identical values can stand only once. Marks after values point to notes of the source that are not given here. Where only a bound is given, the exact number is not on record here.

As for insulin, the “wound healing compared with water” value in the data set with unsealed wound is “More complete wound healing”. In addition, the “Blood Glucose Level” value was 89 mg/dL and 104 mg/dL and 118 mg/dL in data set [1] (0 Hr (start of study, before treatment)); 58 mg/dL and 36 mg/dL and 46 mg/dL in data set [1] (0.5 Hr, incision sealed with cyanoacrylate); <25 mg/dL in data set [1] (3.0 Hr., incision sealed with cyanoacrylate); <25 mg/dL (2×) and 113 mg/dL in data set [1] (21 Hr., incision sealed with cyanoacrylate); <25* mg/dL and 109 mg/dL in data set [1] (69 Hr., incision sealed with cyanoacrylate). Further, in data set [1] (by 69 Hr., individual mouse), the death of mouse entry is recorded as “Died”. The “effect on levels of blood glucose compared with control water treatment” value in data set [1] (summary of Table 1) is given as “dramatic effects”.
